Measured values taken from patent publication US6448062B1, “Simultaneous cleaning and decontaminating compositions and methods” (priority 1998, dated 2002).
Read-outs that look alike come from different tables or passages of the source.

Key:
[1] = system: Azocasein; assay: Azocasein hydrolysis (Abs390) by human trypsin or chymotrypsin in PAA/H2O2; conditions: 23° C.
Description: The activity for the PAA/H2O2 solution alone as a control is also given. […] A volume of 4.05 ml of 10 mM K3PO4 buffer was combined with 0.45 ml initial trypsin buffer solution and 45 mg Azocasein to prepare the trypsin/phosphate buffer solution for the test.
A 0.22%^w/v PAA/1.17%^w/v H2O2 solution was prepared using a dilution of Degussa's 4.9%^w/w PAA/26.6%^w/w H2O2 in a volumetric flask. A volume of 4.05 ml of the latter solution was mixed with 0.45 ml initial trypsin/phosphate buffer solution and 45 mg Azocasein powder.
At 2.8 and 7 h, 1.5 ml sample aliquots were removed from the above three solutions and reacted with 1.5 ml of 10%^w/v trichloroacetic acid stop reagent. After incubating for 15-20 min, the solutions were filtered using Whatman #3 filter paper with a syringe and a Gelman 13 mm filter holder. The filtered solutions were then analyzed with a Shimadzu UV-visible 1601 spectrophotometer Abs390.
An additional example with human chymotrypsin follows. The solutions were similarly prepared as above.

[2] = system: Azocasein; assay: In-situ protease activity assay: azocasein hydrolysis (Abs390) in H2O2/enzyme solutions; conditions: for Abs390 hydrolyzed azocasein solution: human chymotrypsin experiment, 23° C.; for Absorbance (normalized with dilution factor) of hydrolyzed Azocasein solution at 390 nm: pH 8.5, 23° C., 1% azocasein
Description: Solutions of 7.5%^w/v H2O2 at various pH levels were prepared by adjusting the pH of 35%^w/w H2O2 solution (Degussa) with 10 mM K3PO4 in a volumetric flask in the presence of K2HPO4 (phosphate buffer, PB). The solution was diluted with 10 mM KH2PO4 solution of the same pH. […] Azocasein powder was added to the H2O2/Alcalase® mixed solutions to yield 0.4%^w/v azocasein. After 30 min at 23° C., 5 ml azocasein solution was mixed with 5 ml 10%^w/v TCA solution. Precipitates were removed after 15 min by filtration, and the supernatant Abs390 was measured.
One half hour prior to various time points (listed in Tables 5a-d), azocasein powder was added to the solution in an amount of 0.4% of the total solution weight. Abs390 of the solution was measured as in Example 4 except that the supernatant was diluted 6-7 fold to avoid saturation of the UV spectrophotometer.
An additional experiment employing the same method was conducted with human chymotrypsin.

[3] = system: spores of Bacillus subtilis (ATCC #19659); assay: AOAC test for Sporicidal Activity of Disinfectants, porcelain penicylinders, no organic soil load; assay type: cell-based; conditions: for Results: positive penicylinders: exposure 4 hours
[4] = system: Mycobacterium bovis (ATCC 35743); assay type: cell-based
[5] = 25 minutes contact at 20° C.; cited from earlier work
[6] = system: Azocasein; assay: Enzyme activity in 0.368% PAA/2% H2O2, modified Novo azocasein method
Description: In a 100 ml volumetric flask, a solution was prepared using 7.5 ml of 4.9%^w/w (Degussa) PAA, 1 ml enzyme, and diluted with 0.2 M tris(hydroxymethyl)aminomethane to control the pH at 8.5 to yield a final concentration of 0.368%^w/v PAA/2%^w/v H2O2. […] A timer was started as soon as the combinations of enzymes and PAA/H2O2 were mixed. At periodic intervals, aliquots of the enzyme/PAA/H2O2 solutions were removed and diluted 64 times to react with the 0.6%^w/v Azocasein substrate solution in a water bath at the modified temperature of 30° C. for 30 min. After stopping the reaction with 10% TCA and filtering the precipitate, the supernatants were analyzed on a spectrophotometer at 390 nm.

Molecule: Chymotrypsin
- Absorbance at 390 nm of hydrolyzed Azocasein solution ([1]; pH 7.25, 2 h): 2.716
- Absorbance at 390 nm of hydrolyzed Azocasein solution ([1]; pH 7.25, 4 h): 3.674
- Absorbance Ratio of Chymotrypsin/Azocasein solutions with and without 7.5% H2O2 ([2]; 2 h): 0.308
- Absorbance Ratio of Chymotrypsin/Azocasein solutions with and without 7.5% H2O2 ([2]; 4 h): 0.316
- Abs390 hydrolyzed azocasein solution ([2]; pH 7.75, 2 h): 2.541
- Abs390 hydrolyzed azocasein solution ([2]; pH 7.75, 4 h): 3.653

Molecule: OO [Sample 10, hydrogen peroxide]
- Results: positive penicylinders [3]: 0 positive

Molecule: OO [6% H2O2 pH 1.8, hydrogen peroxide]
- % Reduction ([4]; contact time 5 min): 98.65%
- log10 Reduction ([4]; contact time 5 min): 1.87
- % Reduction ([4]; contact time 10 min): 99.25%
- log10 Reduction ([4]; contact time 10 min): 2.13
- % Reduction ([4]; contact time 15 min): 99.51%
- log10 Reduction ([4]; contact time 15 min): 2.31
- % Reduction ([4]; contact time 20 min): 99.38%
- log10 Reduction ([4]; contact time 20 min): 2.21

Molecule: CC(=O)OO [PAA, peracetic acid]
- minimum effective concentration for high-level disinfection [5]: 0.05 %w/w

Molecule: Trypsin: human trypsin (Sigma)
- Absorbance at 390 nm of hydrolyzed Azocasein solution ([1]; pH 7.5, 1% azocasein, 2.8 h): 1.4254
- Absorbance at 390 nm of hydrolyzed Azocasein solution ([1]; pH 7.5, 1% azocasein, 7 h): 1.5588

Molecule: c1ccc2[nH]nnc2c1 [Benzotriazole, 1,2,3-benzotriazole]
- Absorbance (normalized with dilution factor) of hydrolyzed Azocasein solution at 390 nm ([2]; 7.4 mM Na3PO4, 0.5 h): 0.0986
- Absorbance (normalized with dilution factor) of hydrolyzed Azocasein solution at 390 nm ([2]; 7.4 mM Na3PO4, 4.5 h): 0.1536

Molecule: OO [Sample 11, hydrogen peroxide]
- Results: positive penicylinders [3]: 0 positive

Molecule: OO [Solutions of 7.5% H2O2 alone, hydrogen peroxide]
- exposure at which sporicidal (no positive penicylinders) [3]: ≤ 4 h

B1: Alcalase ® 2.5 L: commercial subtilisin A liquid concentrate, 2.5 Anson units per gram (Novo Nordisk) (protein, UniProt P00780 106-379, looked up)
Subtilisin Carlsberg: AQTVPYGIPLIKADKVQAQGFKGANVKVAVLDTGIQASHPDLNVVGGASFVAGEAYNTDGNGHGTHVAGTVAALDNTTGVLGVAPSVSLYAVKVLNSSGSGSYSGIVSGIEWATTNGMDVINMSLGGASGSTAMKQAVDNAYAKGVVVVAAAGNSGSSGNTNTIGYPAKYDSVIAVGAVDSNSNRASFSSVGAELEVMAPGAGVYSTYPTNTYATLNGTSMASPHVAGAAALILSKHPNLSASQVRNRLSSTATYLGSSFYYGKGLINVEAAAQ
modifications: commercial liquid concentrate
- decrease in activity ([6]; 0.368% PAA/2% H2O2, after 7.5 hours): 13%
- Absorbance (proteolytic, 390 nm) ([6]; 0.368% PAA/2% H2O2, pH 8.5, 0 h): 0.6534
- Absorbance (proteolytic, 390 nm) ([6]; 0.368% PAA/2% H2O2, pH 8.5, 3.2 h): 0.6417
- Absorbance (proteolytic, 390 nm) ([6]; 0.368% PAA/2% H2O2, pH 8.5, 6.5 h): 0.6729
- Absorbance (proteolytic, 390 nm) ([6]; 0.368% PAA/2% H2O2, pH 8.5, 7.5 h): 0.5689
